Laboratory results: ChEMBL document CHEMBL2177037, “10'-Fluorovinblastine and 10'-Fluorovincristine: Synthesis of a Key Series of Modified Vinca Alkaloids” (ACS Med Chem Lett, 2011)
Activity calls are given as the source filed them. No cut-off for these calls is given here.

Assays:
[1] = test system: HCT-116; assay: Cytotoxicity against human HCT116 cells; assay type: functional, cell-based
[2] = test system: L1210; assay: Cytotoxicity against mouse L1210 cells; assay type: functional, cell-based
[3] = test system: HCT-116/VM46; assay: Cytotoxicity against human vinblastin-resistant HCT116/VM46 cells; assay type: functional, cell-based
[4] = test system: L1210; assay: Ratio of vinblastin IC50 to compound IC50 for mouse L1210 cells; assay type: functional
[5] = test system: HCT-116/VM46; assay: Antitumor activity against human HCT116/VM46 cells xenografted in mouse assessed as mouse survival at 0.01 to 0.5 mg/kg, ip after 110 days; assay type: functional, organism-based
[6] = test system: HCT-116/VM46; assay: Ratio of vinblastin IC50 to compound IC50 for human vinblastin-resistant HCT116/VM46 cells; assay type: functional
[7] = test system: HCT-116; assay: Ratio of vinblastin IC50 to compound IC50 for human HCT116 cells; assay type: functional
[8] = test system: HCT-116; assay: Antitumor activity against human HCT116 cells xenografted in mouse assessed as mouse survival at 0.5 mg/kg; assay type: functional, organism-based; parameters: dose 0.5 mg/kg
[9] = test system: HCT-116; assay: Ratio of vincristine IC50 to compound IC50 for human HCT116 cells; assay type: functional
[10] = test system: HCT-116/VM46; assay: Ratio of vincristine IC50 to compound IC50 for human vincristine-resistant HCT116/VM46 cells; assay type: functional
[11] = test system: L1210; assay: Ratio of vincristine IC50 to compound IC50 for mouse L1210 cells; assay type: functional

Row | Compound | IC50 [1] | IC50 [2] | IC50 [3] | further results
1 | CCC1=C[C@H]2CN(CCc3c([nH]c4ccc(Cl)cc34)[C@@](C(=O)OC)(c3cc4c(cc3OC)N(C)[C@H]3[C@@](O)(C(=O)OC)[C@H](OC(C)=O)[C@]5(CC)C=CCN6CC[C@]43[C@@H]65)C2)C1 | 70 nM | 60 nM | 800 nM | –
2 | CC[C@]1(O)C[C@H]2CN(CCc3c([nH]c4c(Cl)cccc34)[C@@](C(=O)OC)(c3cc4c(cc3OC)N(C)[C@H]3[C@@](O)(C(=O)OC)[C@H](OC(C)=O)[C@]5(CC)C=CCN6CC[C@]43[C@@H]65)C2)C1 | 220 nM | 330 nM | 5000 nM | –
3 | CCC1=C[C@H]2CN(CCc3c([nH]c4ccc(SC)cc34)[C@@](C(=O)OC)(c3cc4c(cc3OC)N(C)[C@H]3[C@@](O)(C(=O)OC)[C@H](OC(C)=O)[C@]5(CC)C=CCN6CC[C@]43[C@@H]65)C2)C1 | 85 nM | 60 nM | 770 nM | –
4 | CC[C@]1(O)C[C@H]2CN(CCc3c([nH]c4ccc(F)cc34)[C@@](C(=O)OC)(c3cc4c(cc3OC)N(C)[C@H]3[C@@](O)(C(=O)OC)[C@H](OC(C)=O)[C@]5(CC)C=CCN6CC[C@]43[C@@H]65)C2)C1 | 0.8 nM | 0.7 nM | 80 nM | Ratio IC50 [4]: 8; Activity [5]: Active; Ratio IC50 [6]: 8; Ratio IC50 [7]: 8
5 | CC[C@]1(O)C[C@H]2CN(CCc3c([nH]c4ccc(C)cc34)[C@@](C(=O)OC)(c3cc4c(cc3OC)N(C)[C@H]3[C@@](O)(C(=O)OC)[C@H](OC(C)=O)[C@]5(CC)C=CCN6CC[C@]43[C@@H]65)C2)C1 | 7.8 nM | 7.8 nM | 600 nM | –
6 | CC[C@]1(O)C[C@H]2CN(CCc3c([nH]c4c(F)cccc34)[C@@](C(=O)OC)(c3cc4c(cc3OC)N(C)[C@H]3[C@@](O)(C(=O)OC)[C@H](OC(C)=O)[C@]5(CC)C=CCN6CC[C@]43[C@@H]65)C2)C1 | 65 nM | 50 nM | 730 nM | –
7 | CC[C@]1(O)C[C@H]2CN(CCc3c([nH]c4ccc(Cl)cc34)[C@@](C(=O)OC)(c3cc4c(cc3OC)N(C)[C@H]3[C@@](O)(C(=O)OC)[C@H](OC(C)=O)[C@]5(CC)C=CCN6CC[C@]43[C@@H]65)C2)C1 | 7.6 nM | 6.2 nM | 720 nM | –
8 | CC[C@]1(O)C[C@H]2CN(CCc3c([nH]c4c(I)cccc34)[C@@](C(=O)OC)(c3cc4c(cc3OC)N(C)[C@H]3[C@@](O)(C(=O)OC)[C@H](OC(C)=O)[C@]5(CC)C=CCN6CC[C@]43[C@@H]65)C2)C1 | 80 nM | 55 nM | 910 nM | –
9 | CC[C@]1(O)C[C@H]2CN(CCc3c([nH]c4c(Br)cccc34)[C@@](C(=O)OC)(c3cc4c(cc3OC)N(C)[C@H]3[C@@](O)(C(=O)OC)[C@H](OC(C)=O)[C@]5(CC)C=CCN6CC[C@]43[C@@H]65)C2)C1 | 80 nM | 50 nM | 910 nM | –
10 | CCC1=C[C@H]2CN(CCc3c([nH]c4c(Br)cccc34)[C@@](C(=O)OC)(c3cc4c(cc3OC)N(C)[C@H]3[C@@](O)(C(=O)OC)[C@H](OC(C)=O)[C@]5(CC)C=CCN6CC[C@]43[C@@H]65)C2)C1 | 740 nM | 600 nM | 3900 nM | –
11 | CC[C@]1(O)C[C@H]2CN(CCc3c([nH]c4ccc(Br)cc34)[C@@](C(=O)OC)(c3cc4c(cc3OC)N(C)[C@H]3[C@@](O)(C(=O)OC)[C@H](OC(C)=O)[C@]5(CC)C=CCN6CC[C@]43[C@@H]65)C2)C1 | 8.6 nM | 8 nM | 270 nM | –
12 | CCC1=C[C@H]2CN(CCc3c([nH]c4ccc(C)cc34)[C@@](C(=O)OC)(c3cc4c(cc3OC)N(C)[C@H]3[C@@](O)(C(=O)OC)[C@H](OC(C)=O)[C@]5(CC)C=CCN6CC[C@]43[C@@H]65)C2)C1 | 65 nM | 65 nM | 640 nM | –
13 | CC[C@]1(O)C[C@@H]2CN(CCc3c([nH]c4ccccc34)[C@@](C(=O)OC)(c3cc4c(cc3OC)N(C)[C@H]3[C@@](O)(C(=O)OC)[C@H](OC(C)=O)[C@]5(CC)C=CCN6CC[C@]43[C@@H]65)C2)C1 [VINBLASTINE] | – | – | 600 nM | Activity [8]: Active
14 | CC[C@]1(O)C[C@H]2CN(CCc3c([nH]c4ccccc34)[C@@](C(=O)OC)(c3cc4c(cc3OC)N(C=O)[C@H]3[C@@](O)(C(=O)OC)[C@H](OC(C)=O)[C@]5(CC)C=CCN6CC[C@]43[C@@H]65)C2)C1 [VINCRISTINE] | 7 nM | 6 nM | – | –
15 | CCC1=C[C@H]2CN(CCc3c([nH]c4c(F)cccc34)[C@@](C(=O)OC)(c3cc4c(cc3OC)N(C)[C@H]3[C@@](O)(C(=O)OC)[C@H](OC(C)=O)[C@]5(CC)C=CCN6CC[C@]43[C@@H]65)C2)C1 | 790 nM | 650 nM | 6700 nM | –
16 | CC[C@]1(O)C[C@H]2CN(CCc3c([nH]c4ccc(C#N)cc34)[C@@](C(=O)OC)(c3cc4c(cc3OC)N(C)[C@H]3[C@@](O)(C(=O)OC)[C@H](OC(C)=O)[C@]5(CC)C=CCN6CC[C@]43[C@@H]65)C2)C1 | 620 nM | 630 nM | > 10000 nM | –
17 | CC[C@]1(O)C[C@H]2CN(CCc3c([nH]c4ccc(OC)cc34)[C@@](C(=O)OC)(c3cc4c(cc3OC)N(C)[C@H]3[C@@](O)(C(=O)OC)[C@H](OC(C)=O)[C@]5(CC)C=CCN6CC[C@]43[C@@H]65)C2)C1 | 720 nM | 670 nM | > 10000 nM | –
18 | CCC1=C[C@H]2CN(CCc3c([nH]c4ccc(I)cc34)[C@@](C(=O)OC)(c3cc4c(cc3OC)N(C)[C@H]3[C@@](O)(C(=O)OC)[C@H](OC(C)=O)[C@]5(CC)C=CCN6CC[C@]43[C@@H]65)C2)C1 | 600 nM | 620 nM | 1800 nM | –
19 | CCC1=C[C@H]2CN(CCc3c([nH]c4ccc(O)cc34)[C@@](C(=O)OC)(c3cc4c(cc3OC)N(C)[C@H]3[C@@](O)(C(=O)OC)[C@H](OC(C)=O)[C@]5(CC)C=CCN6CC[C@]43[C@@H]65)C2)C1 | 500 nM | 590 nM | 7200 nM | –
20 | CC[C@]1(O)C[C@H]2CN(CCc3c([nH]c4ccc(SC)cc34)[C@@](C(=O)OC)(c3cc4c(cc3OC)N(C)[C@H]3[C@@](O)(C(=O)OC)[C@H](OC(C)=O)[C@]5(CC)C=CCN6CC[C@]43[C@@H]65)C2)C1 | 50 nM | 50 nM | 780 nM | –
21 | CCC1=C[C@H]2CN(CCc3c([nH]c4ccc(F)cc34)[C@@](C(=O)OC)(c3cc4c(cc3OC)N(C)[C@H]3[C@@](O)(C(=O)OC)[C@H](OC(C)=O)[C@]5(CC)C=CCN6CC[C@]43[C@@H]65)C2)C1 | 50 nM | 30 nM | 290 nM | –
22 | CCC1=C[C@H]2CN(CCc3c([nH]c4ccc(C#N)cc34)[C@@](C(=O)OC)(c3cc4c(cc3OC)N(C)[C@H]3[C@@](O)(C(=O)OC)[C@H](OC(C)=O)[C@]5(CC)C=CCN6CC[C@]43[C@@H]65)C2)C1 | 70 nM | 65 nM | 920 nM | –
23 | CCC1=C[C@H]2CN(CCc3c([nH]c4ccc(OC)cc34)[C@@](C(=O)OC)(c3cc4c(cc3OC)N(C)[C@H]3[C@@](O)(C(=O)OC)[C@H](OC(C)=O)[C@]5(CC)C=CCN6CC[C@]43[C@@H]65)C2)C1 | 640 nM | 550 nM | 5500 nM | –
24 | CCC1=C[C@H]2CN(CCc3c([nH]c4c(Cl)cccc34)[C@@](C(=O)OC)(c3cc4c(cc3OC)N(C)[C@H]3[C@@](O)(C(=O)OC)[C@H](OC(C)=O)[C@]5(CC)C=CCN6CC[C@]43[C@@H]65)C2)C1 | 880 nM | 640 nM | 7300 nM | –
25 | CCC1=C[C@H]2CN(CCc3c([nH]c4ccccc34)[C@@](C(=O)OC)(c3cc4c(cc3OC)N(C)[C@H]3[C@@](O)(C(=O)OC)[C@H](OC(C)=O)[C@]5(CC)C=CCN6CC[C@]43[C@@H]65)C2)C1 | 75 nM | 65 nM | 600 nM | –
26 | CCC1=C[C@H]2CN(CCc3c([nH]c4ccc(Br)cc34)[C@@](C(=O)OC)(c3cc4c(cc3OC)N(C)[C@H]3[C@@](O)(C(=O)OC)[C@H](OC(C)=O)[C@]5(CC)C=CCN6CC[C@]43[C@@H]65)C2)C1 | 70 nM | 65 nM | 860 nM | –
27 | CC[C@]1(O)C[C@H]2CN(CCc3c([nH]c4ccc(I)cc34)[C@@](C(=O)OC)(c3cc4c(cc3OC)N(C)[C@H]3[C@@](O)(C(=O)OC)[C@H](OC(C)=O)[C@]5(CC)C=CCN6CC[C@]43[C@@H]65)C2)C1 | 60 nM | 55 nM | 840 nM | –
28 | CCC1=C[C@H]2CN(CCc3c([nH]c4c(I)cccc34)[C@@](C(=O)OC)(c3cc4c(cc3OC)N(C)[C@H]3[C@@](O)(C(=O)OC)[C@H](OC(C)=O)[C@]5(CC)C=CCN6CC[C@]43[C@@H]65)C2)C1 | 870 nM | 690 nM | 6200 nM | –
29 | CC[C@]1(O)C[C@H]2CN(CCc3c([nH]c4ccc(F)cc34)[C@@](C(=O)OC)(c3cc4c(cc3OC)N(C=O)[C@H]3[C@@](O)(C(=O)OC)[C@H](OC(C)=O)[C@]5(CC)C=CCN6CC[C@]43[C@@H]65)C2)C1 | 1.5 nM | 0.8 nM | – | Ratio IC50 [9]: 5; Ratio IC50 [10]: 5; Ratio IC50 [11]: 5
